Assay results taken from PMC8584424, “Synthesis of Novel 2-Thiouracil-5-Sulfonamide Derivatives as Potent Inducers of Cell Cycle Arrest and CDK2A Inhibition Supported by Molecular Docking” (International Journal of Molecular Sciences, 2021).

Experiments:
[1] = system: HT-29 (colon) cancer cells; assay: In vitro cytotoxicity assessment (MTT), HT-29; type: cell-based, human; details: for IC50: Homo sapiens, HT-29, 48 h, MTT, mean of three experiments ± SD, NA: not active; for SI (selectivity index) HT-29: IC50 in WI38 normal cells / IC50 in HT-29
From the text: (§1) Four cancer cell lines were used in this study viz ovarian (A-2780), colon (HT-29), breast (MCF-7), and liver (HepG2) cancer cells. They were provided by the National Institute of Cancer, Cairo University (Cairo, Egypt). The selection of those cancer cells was encouraged by the stated anticancer activity of a number 5-Fluorouracil hybrids against the mentioned cancer cells and based on the reported cytotoxic activity of a large range of bioactive cores containing sulfonamide moiety.
(§2) Cells were seeded in 96 well plates at a density of 2 × 10^4 and incubated to allow the attachment for 24 h. Then the cells were treated at different concentrations (2.5–10 μM) with 5-FU as a positive control or the synthesized compounds for 48h. 0.1% DMSO was used as a negative control. Afterward, cells were washed using PBS and the viability of cells was evaluated utilizing in vitro toxicology assay kit, MTT Based (Stock No. TOX-1, Sigma-Aldrich, Saint Louis, Missouri, USA), per the manufacturer’s instructions. The plates were read at 570 nm. IC50 was calculated using a sigmoidal dose-response curve (GraphPad Prism version 5 for Windows (GraphPad Inc., USA)). Data are presented as the mean of the three individual experiments. The degree of selectivity of the active target compounds relative to WI38 normal cell lines is expressed as previously described. Selectivity index (SI) = IC50 of a pure compound in a normal cell line/IC50 of the same pure compound in a cancerous cell line.

[2] = system: MCF-7 (breast) cancer cells; assay: In vitro cytotoxicity assessment (MTT), MCF-7; type: cell-based, human; details: for IC50: Homo sapiens, MCF7, 48 h, MTT, mean of three experiments ± SD, NA: not active; for SI (selectivity index) MCF-7: IC50 in WI38 normal cells / IC50 in MCF-7
From the text: as §1, §2

[3] = system: A-2780, HT-29, MCF-7, and HepG2 cancer cell lines; assay: Cytotoxic screening, statements for the whole panel of four cancer cell lines; type: cell-based, human; details: A-2780, HT-29, MCF-7, HepG2
From the text: as §1, §2

[4] = system: HepG2 (liver) cancer cells; assay: In vitro cytotoxicity assessment (MTT), HepG2; type: cell-based, human; details: for IC50: Homo sapiens, HepG2, 48 h, MTT, mean of three experiments ± SD, NA: not active; for SI (selectivity index) HepG2: IC50 in WI38 normal cells / IC50 in HepG2
From the text: as §1, §2

[5] = system: A-2780 (ovarian) cancer cells; assay: In vitro cytotoxicity assessment (MTT), A-2780; type: cell-based, human; details: for IC50: Homo sapiens, A2780, 48 h, MTT, mean of three experiments ± SD, NA: not active; for SI (selectivity index) A-2780: IC50 in WI38 normal cells / IC50 in A-2780
From the text: as §1, §2

WI38 normal cells = assay: In vitro cytotoxicity assessment (MTT), normal cells; type: cell-based; details: WI-38; normal human cell line WI38, MTT
Protocol: as §2, with “Then the cells were treated at different concentrations (2.5–10 μM) with 5-FU as a positive control or the synthesized compounds for 48h.” left out

CDK2/CyclinA2 = molecular target: T1, CDK2/CyclinA2 (Homo sapiens, UniProt P24941); assay: In vitro inhibitory screening of CDK2 (CDK2 Assay kit, Kinase-Glo MAX); type: biochemical; details: CDK2/CyclinA2, 30 °C 45 min; mean of three experiments ± SD; read-out: CDK2 Protein Kinase (IC50 in µM)
T1 construct: purchased #79599
Protocol: To measure CDK2/CyclinA2 activity, the CDK2 Assay kit #79599 was used for screening and profiling applications, together with Kinase-Glo® MAX (Promega#V6071) as a detection reagent. […] Briefly, 25 μL of the master mixture containing 6 μL Kinase assay buffer + 1 μL ATP + 5 μL CDK substrate peptide + 13 μL distilled water were added to each well. Later, 5 µL of inhibitor buffer only or diluted compound were added to the blank or test inhibitor wells, respectively. Then, 20μL of Kinase assay buffer was added to blank wells. The reaction was started by the addition of 20 μL of CDK2/CyclinA2 enzyme to the wells of the test inhibitor. The final volume was 50 µL in all of the reactions. Incubation was at 30 °C for 45 min for all the enzymatic reactions. Finally, to each well, 50 μL of Kinase-Glo MAX reagent was added. The plate was incubated for 15 min at room temperature then, the luminescence signal was measured using a Bio Tek Synergy 2 microplate reader. Experiments were performed in triplicates.

HepG2 cells [6] = assay: Annexin V-FITC/PI apoptosis assay, HepG2; type: cell-based, human; details: 6e at its IC50, 48 h
Protocol: (§3) For the apoptosis assay, the BioVision annexin V-FITC apoptosis detection kit (Cat No.: K101; BioVision, Inc., Milpitas, CA, USA) was used, per the manufacturer’s instructions. […] The cells were resuspended in 500 μL of Annexin V–binding buffer, followed by the addition of 5μL of Annexin V–FITC, then incubated in the dark for 10 min at room temperature. Analysis was performed using a FACS Calibur flow cytometer (BD Biosciences, San Jose, CA, USA), using […] software (Becton Dickinson Immunocytometry Systems, San Jose, CA, USA).

MCF-7 cells [7] = assay: Annexin V-FITC/PI apoptosis assay, MCF-7; type: cell-based, human; details: 6e at its IC50, 48 h
Protocol: as §3

HepG2 cells [8] = assay: Cell cycle analysis (PI flow cytometry), HepG2; type: cell-based, human; details: IC50 of 6e, 48 h
Protocol: (§4) To evaluate cancer cells distribution through different cell cycle stages, the DNA content of propidium iodide-stained nuclei was assessed by flow cytometry as depicted earlier. […] Then, the cells were washed twice with ice-cold phosphate-buffered saline (PBS) and gathered by centrifugation. The cell pellets were mixed with 75% ethanol (−20 °C). Afterward, cells were stained with the propidium iodide flow cytometry kit (ab139418, Abcam, Cambridge, MA, USA), according to the manufacturer’s instructions. Cell cycle distribution was established by FACS Calibur flow cytometer (BD Biosciences, San Jose, CA, USA). Cell cycle distribution was measured using […] software (Becton Dickinson Immunocytometry Systems, San Jose, CA, USA).

HT-29 cells [9] = assay: Cell cycle analysis (PI flow cytometry), HT-29; type: cell-based, human; details: IC50 of 6e, 48 h
Protocol: as §4

A-2780 cells [10] = assay: Annexin V-FITC/PI apoptosis assay, A-2780; type: cell-based, human; details: 6e at its IC50, 48 h
Protocol: as §3

HT-29 cells [11] = assay: Annexin V-FITC/PI apoptosis assay, HT-29; type: cell-based, human; details: 6e at its IC50, 48 h
Protocol: as §3

p27 = assay: Western blot analysis for p27 in MCF-7 cells; type: cell-based, human; details: 6e at IC50 (1.67 μM), 48 h, relative to actin
Protocol: (§5) Whole-cell protein lysates were prepared according to a standard protocol using RIPA buffer (Cell Signaling, Danvers, MA, USA). Total protein concentrations were determined in the supernatant using the Bradford method. Equal amounts (20 µg) of protein samples were mixed and boiled with SDS Loading buffer for 10 min, allowed to cool on ice and then loaded into SDS-polyacrylamide gel and separated by Cleaver electrophoresis unit (Cleaver, UK), transferred onto polyvinylidene fluoride (PVDF) membranes (BioRad, USA) for 30 min using a Semi-dry Electroblotter (Biorad, USA) at 2.5 A and 25 V for 30 min. Membranes were blocked with 5% non-fat dry milk in TBS-T and incubated overnight with the primary antibody: anti-p21, anti-p27 antibody, or anti-β-actin antibody (1:1000; Cell Signaling Technology, Inc., Danvers, MA, USA), then incubated with secondary HRP-linked antibody (1:5000). Development was done using Pierce ECL2 chemiluminescent and chemifluorescent substrate (Perkin Elmer, Waltham, MA, USA). The chemiluminescent signals were captured using a CCD camera-based imager (Chemi Doc imager, Biorad, USA), and the bands’ intensities were then measured relative to actin by ImageLab (Biorad).

MCF-7 cells [12] = assay: Cell cycle analysis (PI flow cytometry), MCF-7; type: cell-based, human; details: IC50 of 6e, 48 h
Protocol: as §4

A-2780 cells [13] = assay: Cell cycle analysis (PI flow cytometry), A-2780; type: cell-based, human; details: IC50 of 6e, 48 h
Protocol: as §4

p21 = assay: Western blot analysis for p21 in MCF-7 cells; type: cell-based, human; details: 6e at IC50 (1.67 μM), 48 h, relative to actin
Protocol: as §5

SMILES: Cc1[nH]c(=S)[nH]c(=O)c1S(=O)(=O)C1Cc2ccccc2C1=O (stereo not drawn) [Compound 5, 6-Methyl-5-(1-Oxo-2,3-Dihydro-1H-Inden-2-Ylsulfonyl)-2-Thioxo-2,3-Dihydropyrimidin-4(1H)-One]
- IC50 [1]: 11.7 ± 1.96 µM
- melting point: 348 to 350 °C
- IC50 [2]: 17.3 ± 2.35 µM
- anticancer activity against the four cancer cell lines, in words [3]: low or no anticancer activity

SMILES: Cc1[nH]c(=S)[nH]c(=O)c1S(=O)(=O)C1C(=O)CC(C)(C)CC1=O [Compound 4, 5,5-Dimethyl-2-[(6-Methyl-4-Oxo-2-Thioxo-1,2,3,4-Tetrahydropyrimidin-5-Yl)sulfonyl]cyclohexane-1,3-Dione]
- IC50 [1]: 14.2 ± 2.85 µM
- melting point: 340 to 342 °C
- IC50 [2]: 10.8 ± 1.6 µM
- anticancer activity against the four cancer cell lines, in words [3]: low or no anticancer activity

SMILES: Cc1[nH]c(=S)[nH]c(=O)c1S(=O)(=O)Cl [Compound 2, 6-Methyl-4-Oxo-2-Thioxo-1,2,3,4-Tetrahydropyrimidine-5-Sulfonyl Chloride]
- IC50 [1]: 18 ± 1.04 µM
- melting point: 324 to 326 °C
- IC50 [2]: 16.5 ± 1.4 µM
- IC50 [4]: 17 ± 0.93 µM
- anticancer activity against the four cancer cell lines, in words [3]: low anticancer activity
- IC50 [5]: 21.4 ± 2.51 µM

SMILES: Cc1[nH]c(=S)[nH]c(=O)c1S(=O)(=O)C1C(=O)NC(=O)NC1=O [Compound 3, 5-[(6-Methyl-4-Oxo-2-Thioxo-1,2,3,4-Tetrahydropyrimidin-5-Yl)sulfonyl]pyrimidine-2,4,6(1H,3H,5H)-Trione]
- IC50 [1]: 13 ± 2 µM
- melting point: 344 to 346 °C
- IC50 [2]: 14.9 ± 2.89 µM
- anticancer activity against the four cancer cell lines, in words [3]: low or no anticancer activity

SMILES: Cc1[nH]c(=S)[nH]c(=O)c1S(=O)(=O)Nc1cccc(C(=O)C=Cc2ccc(Cl)cc2)c1 [Compound 7a, N-(3-(3-(4-Chlorophenyl)acryloyl)phenyl)-6-Methyl-4-Oxo-2-Thioxo-1,2,3,4-Tetrahydro Pyrimidine-5-Sulfonamide]
- IC50 [1]: 4.2 ± 0.88 µM
- SI (selectivity index) HT-29 [1]: 19.78
- melting point: 315 to 317 °C
- IC50 [2]: 6.9 ± 1.33 µM
- SI (selectivity index) MCF-7 [2]: 12.04
- IC50 [4]: 10.9 ± 1.72 µM
- SI (selectivity index) HepG2 [4]: 7.61
- IC50 (WI38 normal cells): 83.1 ± 2 µM
- IC50 [5]: 12.5 ± 2.1 µM
- SI (selectivity index) A-2780 [5]: 6.66
- IC50 (CDK2/CyclinA2): 6.41 ± 0.377 µM

SMILES: CC(=O)c1cccc(NS(=O)(=O)c2c(C)[nH]c(=S)[nH]c2=O)c1 [Compound 6d, N-(3-Acetylphenyl)-6-Methyl-4-Oxo-2-Thioxo-1,2,3,4-Tetrahydropyrimidine-5-Sulfonamide]
- IC50 [1]: 6.13 ± 0.53 µM
- SI (selectivity index) HT-29 [1]: 12.13
- melting point: 318 to 320 °C
- IC50 [2]: 2.3 ± 0.62 µM
- SI (selectivity index) MCF-7 [2]: 32.33
- IC50 [4]: 5.24 ± 1.05 µM
- IC50 (WI38 normal cells): 74.4 ± 4.74 µM
- IC50 [5]: 11.7 ± 1.99 µM
- SI (selectivity index) A-2780 [5]: 6.37
- IC50 (CDK2/CyclinA2): 0.567 ± 0.021 µM

SMILES: Cc1[nH]c(=S)[nH]c(=O)c1S(=O)(=O)Nc1cccc(Cl)c1Cl [Compound 6e, N-(2,3-Dichlorophenyl)-6-Methyl-4-Oxo-2-Thioxo-1,2,3,4-Tetrahydropyrimidine-5-Sulfonamide]
- IC50 [1]: 1.75 ± 0.4 µM
- SI (selectivity index) HT-29 [1]: 34.40
- % Early Apoptosis (HepG2 cells [6]): 0.84%
- % Late Apoptosis (HepG2 cells [6]): 18.97%
- % Necrosis (HepG2 cells [6]): 8.81%
- % Total (HepG2 cells [6]): 28.62%
- melting point: 326 to 328 °C
- IC50 [2]: 1.67 ± 0.31 µM
- SI (selectivity index) MCF-7 [2]: 36.05
- IC50 [4]: 2.02 ± 0.85 µM
- SI (selectivity index) HepG2 [4]: 29.80
- % Early Apoptosis (MCF-7 cells [7]): 3.82%
- % Late Apoptosis (MCF-7 cells [7]): 23.71%
- % Necrosis (MCF-7 cells [7]): 11.75%
- % Total (MCF-7 cells [7]): 39.28%
- phase of cell growth arrest (HepG2 cells [8]): G2/M phase
- phase of cell growth arrest (HT-29 cells [9]): S phase
- % Early Apoptosis (A-2780 cells [10]): 2.38%
- % Late Apoptosis (A-2780 cells [10]): 22.02%
- % Necrosis (A-2780 cells [10]): 9.41%
- % Total (A-2780 cells [10]): 33.81%
- IC50 (WI38 normal cells): 60.2 ± 1.77 µM
- % Early Apoptosis (HT-29 cells [11]): 1.61%
- % Late Apoptosis (HT-29 cells [11]): 26.24%
- % Necrosis (HT-29 cells [11]): 14.51%
- % Total (HT-29 cells [11]): 42.36%
- protein expression level of p27, increase compared to control (p27): ~2.2 fold
- phase of cell growth arrest (MCF-7 cells [12]): S phase
- phase of cell growth arrest (A-2780 cells [13]): G1/S phase
- IC50 [5]: 2.52 ± 0.47 µM
- SI (selectivity index) A-2780 [5]: 23.91
- protein expression level of p21, increase compared to control (p21): about 2.6 fold
- IC50 (CDK2/CyclinA2): 0.407 ± 0.021 µM
